What is called IC50 is the concentration needed to halve the response being measured. By Ki is commonly meant a measure of affinity in units of concentration, obtained from inhibition or displacement.

For assay [1], the target named is Monoamine transporters; serotonin & dopamine (Rattus norvegicus) (UniProt P31652+P23977). Put plainly: Ratio between Dopamine transporter and Serotonin transporter uptake. It is filed as protein assay.
Assay [2] addresses T1, Sodium-dependent serotonin transporter (Rattus norvegicus, UniProt P31652). Put plainly: Inhibition of rat brain Serotonin transporter uptake as [3H]5-HT accumulation.
The target in assay [3] is Monoamine transporters; Norepinephrine & serotonin (Rattus norvegicus) (UniProt P31652+Q9WTR4). Put plainly: Ratio between Serotonin transporter and Norepinephrine transporter uptake. The format is protein assay.
Assay [4] has as its target Monoamine transporters; Norepininephrine & dopamine (Rattus norvegicus) (UniProt P23977+Q9WTR4). Put plainly: Ratio between Dopamine transporter and Norepinephrine transporter uptake. The format is protein assay.
Assay [5] deals with T2, Sodium-dependent dopamine transporter (Rattus norvegicus, UniProt P23977). Put plainly: Inhibition of rat brain dopamine transporter as accumulation of [3H]DA. The format is functional.
For assay [6], the target named is T3, Norepinephrine transporter (Rattus norvegicus, UniProt Q9WTR4). Put plainly: Inhibition of rat brain Norepinephrine transporter as accumulation of [3H]-NE. It is filed as functional.
In assay [7] the target is T2, Sodium-dependent dopamine transporter. Put plainly: Inhibition of [3H]WIN-35428 binding to rat brain dopamine transporter.
The target of assay [8] is T1, Sodium-dependent serotonin transporter. Put plainly: Inhibition of rat brain Serotonin transporter as accumulation of [3H]5-HT. It is filed as functional.
In assay [9] the target is T3, Norepinephrine transporter. Put plainly: Inhibition of rat brain Norepinephrine transporter as accumulation of [3H]NE. It is filed as functional.
In assay [10] the target is T2, Sodium-dependent dopamine transporter. Put plainly: Inhibition of rat brain Dopamine transporter uptake as [3H]DA accumulation. It is filed as functional.

T2 sequence (P23977 whole entry): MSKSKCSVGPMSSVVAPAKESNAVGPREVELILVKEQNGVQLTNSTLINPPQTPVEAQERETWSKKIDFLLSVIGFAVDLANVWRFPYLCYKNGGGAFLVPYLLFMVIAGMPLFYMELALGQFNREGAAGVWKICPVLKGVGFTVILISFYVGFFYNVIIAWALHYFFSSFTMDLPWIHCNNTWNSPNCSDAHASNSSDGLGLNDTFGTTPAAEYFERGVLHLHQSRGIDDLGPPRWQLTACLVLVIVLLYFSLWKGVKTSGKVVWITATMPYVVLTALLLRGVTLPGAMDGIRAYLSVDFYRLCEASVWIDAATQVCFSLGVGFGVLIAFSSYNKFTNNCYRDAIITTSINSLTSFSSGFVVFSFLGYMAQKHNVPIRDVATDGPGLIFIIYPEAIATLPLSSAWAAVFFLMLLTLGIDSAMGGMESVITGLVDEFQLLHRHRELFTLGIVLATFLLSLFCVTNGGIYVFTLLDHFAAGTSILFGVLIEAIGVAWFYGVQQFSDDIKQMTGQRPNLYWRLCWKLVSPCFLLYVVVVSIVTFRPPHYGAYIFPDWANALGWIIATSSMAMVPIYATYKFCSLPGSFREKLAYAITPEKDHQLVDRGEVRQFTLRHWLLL
Sequence of Monoamine transporters; serotonin & dopamine (Rattus norvegicus) (P23977 whole entry, looked up): as the sequence (P23977 whole entry) above
Sequence of Monoamine transporters; serotonin & dopamine (Rattus norvegicus) (P31652 whole entry, looked up): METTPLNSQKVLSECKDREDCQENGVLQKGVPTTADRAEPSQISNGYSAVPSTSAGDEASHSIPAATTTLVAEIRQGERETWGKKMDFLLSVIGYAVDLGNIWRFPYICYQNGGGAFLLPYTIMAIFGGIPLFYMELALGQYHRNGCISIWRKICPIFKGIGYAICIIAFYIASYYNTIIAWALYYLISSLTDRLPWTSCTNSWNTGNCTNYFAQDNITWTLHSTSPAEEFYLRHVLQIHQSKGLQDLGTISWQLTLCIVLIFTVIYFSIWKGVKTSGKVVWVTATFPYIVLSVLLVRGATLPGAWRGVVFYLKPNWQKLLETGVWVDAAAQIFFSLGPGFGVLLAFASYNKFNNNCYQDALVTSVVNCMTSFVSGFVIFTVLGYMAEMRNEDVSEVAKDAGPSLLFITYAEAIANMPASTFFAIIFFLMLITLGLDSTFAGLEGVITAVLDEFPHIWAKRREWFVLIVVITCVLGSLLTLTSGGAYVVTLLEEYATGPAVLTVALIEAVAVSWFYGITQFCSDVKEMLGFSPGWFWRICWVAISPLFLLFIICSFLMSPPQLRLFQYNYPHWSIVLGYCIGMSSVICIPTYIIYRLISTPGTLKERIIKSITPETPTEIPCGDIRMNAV
T3 sequence (Q9WTR4 whole entry): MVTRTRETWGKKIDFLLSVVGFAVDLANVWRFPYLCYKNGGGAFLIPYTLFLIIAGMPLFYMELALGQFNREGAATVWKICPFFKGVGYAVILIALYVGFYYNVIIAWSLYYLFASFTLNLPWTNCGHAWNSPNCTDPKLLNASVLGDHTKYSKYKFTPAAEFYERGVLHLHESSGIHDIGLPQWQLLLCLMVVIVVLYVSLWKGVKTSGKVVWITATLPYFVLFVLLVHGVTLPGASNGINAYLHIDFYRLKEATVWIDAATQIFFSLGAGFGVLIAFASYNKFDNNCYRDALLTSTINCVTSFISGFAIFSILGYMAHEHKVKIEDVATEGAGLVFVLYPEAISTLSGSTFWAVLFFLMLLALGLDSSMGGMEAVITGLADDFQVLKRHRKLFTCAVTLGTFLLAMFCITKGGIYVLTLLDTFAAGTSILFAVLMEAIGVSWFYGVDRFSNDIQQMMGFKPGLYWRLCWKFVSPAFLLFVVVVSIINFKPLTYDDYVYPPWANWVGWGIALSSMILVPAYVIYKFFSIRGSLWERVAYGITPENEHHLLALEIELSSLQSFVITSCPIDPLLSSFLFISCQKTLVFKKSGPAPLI
T1 sequence (P31652 whole entry): as the sequence (P31652 whole entry, looked up) above

`O[C@@H]1C[C@@H](C(c2ccccc2)c2ccccc2)OC[C@H]1NCc1ccc(F)cc1`: the Ratio in assay [1] was 0.21; in [3] it was 50; in assay [4], 10.2. Further, the IC50 in assay [2] came out at 676 nM; in assay [7], 308 nM; in assay [9] it was 13.3 nM; in assay [10] it was 169 nM. In addition, the Ki in [5] is 125 nM; in assay [6], 12.2 nM; in [8], 607 nM.

`O[C@@H]1C[C@@H](C(c2ccccc2)c2ccccc2)OC[C@H]1NCCc1ccc(F)cc1`: the values for the Ratio in assay [1], in [3] and in assay [4] were 0.099, 7.9 and 0.78, respectively. Besides, the IC50 is 3570 nM in assay [2], 1050 nM in assay [7], 439 nM in [9] and 427 nM in assay [10]. For the same compound, the values for the Ki in assay [5], in [6] and in [8] were 317 nM, 406 nM and 3210 nM, respectively.

With `COc1ccc(CNC2CC(C(c3ccccc3)c3ccccc3)OCC2O)cc1` (single isomer, unassigned), the results for the Ratio in assay [1], in [3] and in assay [4] were 0.58, 2 and 1.2, respectively. Further, the IC50 in assay [2] is 3810 nM; in [7] it was 3750 nM; in assay [9], 1840 nM; in assay [10], 2670 nM. In addition, the values for the Ki in assay [5], in assay [6] and in assay [8] were 1980 nM, 1700 nM and 3420 nM, respectively.

As for `COc1ccc(CN[C@@H]2C[C@@H](C(c3ccccc3)c3ccccc3)OC[C@H]2O)cc1`, the Ratio in [1] was 0.77; in [3], 1.2; in [4], 0.89. Besides, the IC50 in assay [2] is 1070 nM; in assay [7], 771 nM; in assay [9], 765 nM; in assay [10], 822 nM. The Ki in assay [5] was 611 nM; in assay [6], 686 nM; in assay [8], 793 nM.

As to `COc1ccc(CN[C@@H]2CO[C@H](C(c3ccccc3)c3ccccc3)C[C@H]2O)c(OC)c1`, the values for the Ratio in assay [1], in assay [3] and in assay [4] were 25, 0.22 and 5.6, respectively. The IC50 came out at 24 nM in assay [2], 1060 nM in assay [7], 115 nM in assay [9] and 710 nM in assay [10]. In addition, the results for the Ki in assay [5], in assay [6] and in assay [8] were 528 nM, 95 nM and 20.8 nM, respectively.

Take `OC1COC(C(c2ccccc2)c2ccccc2)CC1NCc1ccccc1` (single isomer, unassigned): the Ratio in assay [1] was determined as 0.18; in assay [3] it was 1.4; in assay [4] it was 0.25. Moreover, the IC50 was 4420 nM in assay [2], 1250 nM in assay [7], 3220 nM in assay [9] and 962 nM in assay [10]. The Ki was found to be 716 nM in assay [5], 2890 nM in assay [6] and 3970 nM in assay [8].

In turn, `COc1ccc(CNC2COC(C(c3ccccc3)c3ccccc3)CC2O)cc1` (single isomer, unassigned) showed a Ki in [6] of 412 nM.

Consider `OC1CC(C(c2ccccc2)c2ccccc2)OCC1NCc1ccc(F)cc1` (single isomer, unassigned), for which the results for the Ratio in [1], in [3] and in assay [4] were 0.065, 4.8 and 0.31, respectively. The IC50 in assay [2] was 5560 nM; in [7], 1030 nM; in assay [9] it was 1130 nM; in [10], 440 nM. The values for the Ki in assay [5], in assay [6] and in [8] were 327 nM, 1050 nM and 5000 nM, respectively.

As to `OC1CC(C(c2ccccc2)c2ccccc2)OCC1NCc1ccccc1` (single isomer, unassigned), the figures for the IC50 in assay [2], in [7] and in [10] were 6120 nM, 596 nM and 341 nM, respectively. For the same compound, the Ki in assay [5] worked out at 253 nM; in assay [8] it was 5500 nM.

For the compound `O[C@@H]1CO[C@H](C(c2ccccc2)c2ccccc2)C[C@H]1NCc1ccccc1`, the Ratio in [1] came to 0.2; in [3] it was 32; in assay [4] it was 6.6. For the same compound, the IC50 is 10600 nM in assay [2], 4640 nM in assay [7], 336 nM in [9] and 2610 nM in [10]. Moreover, the Ki in assay [5] came out at 1940 nM; in assay [6], 296 nM; in assay [8], 9560 nM.

Compound `COc1ccc(CN[C@@H]2CO[C@H](C(c3ccccc3)c3ccccc3)C[C@H]2O)cc1` registered a Ki in assay [6] of 15.8 nM.

For `COc1cc(CN[C@@H]2CO[C@H](C(c3ccccc3)c3ccccc3)C[C@H]2O)cc(OC)c1`, the values for the Ratio in [1], in assay [3] and in assay [4] were 5.1, 0.2 and 0.99, respectively. The IC50 in assay [2] was 25.4 nM; in assay [7], 298 nM; in [9] it was 108 nM; in [10] it was 135 nM. The Ki in assay [5] turned out to be 100 nM; in assay [6], 101 nM; in [8] it was 19.7 nM.

Regarding `O[C@@H]1C[C@@H](C(c2ccccc2)c2ccccc2)OC[C@H]1NCc1ccccc1`, the IC50 turned out to be 862 nM in assay [2] and 600 nM in assay [10]. Besides, the Ki in assay [5] was 446 nM; in assay [8], 707 nM.

Consider `OC1CC(C(c2ccccc2)c2ccccc2)OCC1NCCc1ccc(F)cc1` (single isomer, unassigned), for which the Ratio in [1] amounted to 0.061; in assay [3], 37; in assay [4], 2.3. Further, the half-maximal inhibitory concentration (IC50) in assay [2] was found to be 2950 nM; in assay [7], 443 nM; in [9], 77.3 nM; in assay [10], 218 nM. The Ki came out at 162 nM in [5], 71 nM in [6] and 2650 nM in assay [8].
